Results: patent publication US20120029036A1, “PHARMACEUTICAL COMPOSITIONS COMPRISING PYRIDYL CYANOGUANIDINE, PROCESS FOR PREPARING THE SAME AND USE THEREOF” (Tianjin Michele Sci-Tech Development Co., Ltd., priority 2009, published 2012)
In brackets after ≈: the same amount, converted by molar mass.

Experiments:
[1] = Determination of solubility in hydrochloric acid solution of pH 4.0 (saturated solution, HPLC); assay type: physicochemical; details: ultrasonic 1 hour; for solubility at 1 h: aqueous buffer, thermodynamic from solid, read-out: Solubilities in hydrochloric acid of pH 4
Protocol: 1.6 mg of compound 4 was weighed and dissolved in a mixed solution of 1 ml of methanol and 0.5 ml of DMSO to obtain a control solution. 7.66 mg of compound 4 was dissolved in hydrochloric acid solution of pH 4.0 and shaken in an ultrasonic device for 1 hour to prepare a saturated solution. The solubility of compound 4 in hydrochloric acid solution of pH 4.0 was determined by HPLC.
The solubilities of compound 5 to compound 17 in hydrochloric acid solution were determined with the process for determining the solubility in Example 52.

[2] = Solubilization of compound 1 with surfactants, solution placed for observation; assay type: physicochemical; details: 12 hours
Protocol: (§1) 2.5 mg of compound 1 was weighed and dissolved with 0.5 ml of 0.1N hydrochloric acid solution. 5% (V/V) of polysorbate 80 was added in the resultant solution. The pH of the solution was adjusted with 0.1N of sodium hydroxide to such an extent that precipitates were just to generate.
2.5 mg of compound 1 was weighed and dissolved with 0.5 ml of 0.1N hydrochloric acid solution. An amount of 0.1 N sodium hydroxide solution which is equal to that in Example 25 was added. Precipitates produced.
as §1, with “2” for “2.5”, “polyethylene glycol-12-hydroxy stearate” for “polysorbate 80”
2 mg of compound 1 was weighed and dissolved with 0.5 ml of 0.1N hydrochloric acid solution. The pH was adjusted with an amount of 0.1 N sodium hydroxide solution which is equal to that in Example 27. Precipitates produced.
2 mg of compound 1 was weighed and dissolved with 0.5 ml of 0.1N hydrochloric acid solution. 5% (V/V) of polyoxyethylene castor oil was added in the resultant solution. The pH of the solution was adjusted with 0.1N of sodium hydroxide to such an extent that precipitates were just to generate.
2 mg of compound 1 was weighed and dissolved with 0.5 ml of 0.1N hydrochloric acid solution. The pH was adjusted with an amount of 0.1 N sodium hydroxide solution which is equal to that in Example 29. Precipitates produced.

[3] = system: human tumour cells; details: nude mice transplanted human tumour cells; cited from earlier work
[4] = system: normal human endothelial cells; details: in vitro; cited from earlier work

Compound | Solubilities in hydrochloric acid of pH 4 [1] [mg/ml] | solubility at 1 h [1] [µg/mL] | also measured
N#CNC(=Nc1ccncc1)NCCCCCCOc1c(Cl)cc(Cl)cc1Cl [compound 17, N-cyano-N′-(6-((2,4,6-trichlorophenyl)oxo)hexyl)-N″-(4-pyridyl)guanidine] | 0.00669 | – | –
N#CNC(=Nc1ccncc1)NCCCCCOc1ccc(Cl)cc1 [compound 13, N-cyano-N′-(5-(p-chlorophenoxy)pentyl)-N″-(4-pyridyl)guanidine] | – | 29.5 (≈ 82.5 µM) | –
COc1ccccc1OCCCCCCCCNC(=Nc1ccncc1)NC#N [compound 14, N-cyano-N′-(8-((o-methoxyphenyl)oxo)octyl)-N″-(4-pyridyl)guanidine] | 0.1481 | – | –
N#CNC(=Nc1ccncc1)NCCCCCOc1ccccc1Cl [compound 11, N-cyano-N′-(5-(o-chlorophenoxy)pentyl)-N″-(4-pyridyl)guanidine] | – | 2.85 (≈ 7.96 µM) | –
N#CNC(=Nc1ccncc1)NCCCCCCOc1ccc(F)cc1Cl [compound 7] | 0.09993 | – | –
N#CNC(=Nc1ccncc1)NCCCCCOc1ccc(Cl)cc1Cl [compound 15, N-cyano-N′-(5-((2,4-dichlorophenyl)oxo)pentyl)-N″-(4-pyridyl)guanidine] | 0.000829 | – | –
N#CNC(=Nc1ccncc1)NCCCCCCCOc1ccccc1Cl [compound 12, N-cyano-N′-(7-(o-chlorophenoxy)heptyl)-N″-(4-pyridyl)guanidine] | – | 3.72 (≈ 9.64 µM) | –
N#CNC(=Nc1ccncc1)NCCCCCCOC(=O)c1ccc(Cl)cc1 [compound 6, N-(6-((4-chlorobenzoic acid)ester)hexyl)-N′-cyano-N″-(4-pyridyl)guanidine] | 0.00225 | – | –
CC(C)(C)OC(=O)NCCCCCCCCCCCCNC(=Nc1ccncc1)NC#N [compound 5, N-(12-(tert-butoxycarbonylamino)dodecyl)-N′-cyano-N″-(4-pyridyl)guanidine] | – | 0.92 (≈ 2.07 µM) | –
N#CNC(=Nc1ccncc1)NCCCCCCOc1ccccc1Br [compound 8, N-cyano-N′-(6-(o-bromophenoxy)hexyl)-N″-(4-pyridyl)guanidine] | – | 205 (≈ 494 µM) | –
N#CNC(=Nc1ccncc1)NCCCCCCOc1ccccc1OC(F)(F)F [compound 10] | 0.01965 | – | –
N#CNC(=Nc1ccncc1)NCCCCCOc1c(Cl)cc(Cl)cc1Cl [compound 16] | 0.01753 | – | –
N#CNC(=Nc1ccncc1)NCCCCCCOc1ccc(Cl)cc1 [compound 1, N-cyano-N′-(6-(p-chlorophenoxy)hexyl)-N″-(4-pyridyl)guanidine] | – | – | appearance of solution on standing ([2]; Example 25: 0.1N HCl, 5% (V/V) polysorbate 80, pH adjusted with 0.1N NaOH): solution kept clear for 12 hours; appearance of solution on standing ([2]; Example 26: control without polysorbate 80, same amount of NaOH): precipitates increased during 12 hours; appearance of solution on standing ([2]; Example 27: 0.1N HCl, 5% (V/V) polyethylene glycol-12-hydroxy stearate, pH adjusted with 0.1N NaOH): solution kept clear for 12 hours; appearance of solution on standing ([2]; Example 28: control without polyethylene glycol-12-hydroxy stearate, same amount of NaOH): precipitates increased during 12 hours; appearance of solution on standing ([2]; Example 29: 0.1N HCl, 5% (V/V) polyoxyethylene castor oil, pH adjusted with 0.1N NaOH): solution kept clear for 12 hours; appearance of solution on standing ([2]; Example 30: control without polyoxyethylene castor oil, same amount of NaOH): precipitates increased during 12 hours; antitumour activity [3]: potent antitumour activity; antiproliferative activity to normal human endothelial cells [4]: significantly lower antiproliferative activity
N#CNC(=Nc1ccncc1)NCCCCCCOc1c(Cl)cccc1Cl [compound 9, N-cyano-N′-(6-((2,6-dichlorophenyl)oxo)hexyl)-N″-(4-pyridyl)guanidine] | 0.05331 | – | –
N#CN=C(NCCCCCCCCCCCCNC(=NC#N)Nc1ccncc1)Nc1ccncc1 [compound 4, 1,12-bis(N′-cyano-N″-4-pyridylguanidine)dodecane] | 0.00052 | – | –
